From patent publication US11773078B2, “Furin inhibitors” (Glaxosmithkline Intellectual Property Development Limited, priority 2018, dated 2023) come the findings set out here.

For test [1], the target named is T1, Furin (108-574-Tev-Flag-His) enzyme (Homo sapiens, UniProt P09958).
T1 construct: Furin (108-574-Tev-Flag-His) enzyme was expressed and purified from CHO cells; TEV cleavage site (C); FLAG (C); His (C); made in house; host or cells: CHO cells
Put plainly: Furin enzyme assay. It counts as biochemical. Summed up:
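Compounds ran as 11-point threefold dilutions (0.00017–10 μM final) against 40 pM furin, purified from CHO cells, for 2 h at room temperature. Buffer: 100 mM HEPES pH7.5 with 1 mM CaCl2 and 0.005% Triton X-100. Envision readout. Four-parameter curve gives pXC50.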

The target of test [2] is T2, furin (endogenous protease) in U20S cells (Homo sapiens, UniProt P09958).
T2 construct: the endogenous protease cleaves GFP; endogenous in cells; host or cells: U2OS cells transduced with a BacMam reporter
Put plainly: Furin cell-based assay (image-based, Golgi-targeted GFP with BMP10 furin/PCSK cleavage site).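 Further: Read-out is mean GFP fluorescence of Golgi puncta per cell by high-content imaging, retained when furin inhibited, over an eleven-point 0.00017–10 µM series, four-parameter fit.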 The settings on record: 24-hour incubation, read-out: furin golgi cell pXC50 (converted).

Counter-ions that a name gives are not always drawn.

T2 sequence (P09958 108-794): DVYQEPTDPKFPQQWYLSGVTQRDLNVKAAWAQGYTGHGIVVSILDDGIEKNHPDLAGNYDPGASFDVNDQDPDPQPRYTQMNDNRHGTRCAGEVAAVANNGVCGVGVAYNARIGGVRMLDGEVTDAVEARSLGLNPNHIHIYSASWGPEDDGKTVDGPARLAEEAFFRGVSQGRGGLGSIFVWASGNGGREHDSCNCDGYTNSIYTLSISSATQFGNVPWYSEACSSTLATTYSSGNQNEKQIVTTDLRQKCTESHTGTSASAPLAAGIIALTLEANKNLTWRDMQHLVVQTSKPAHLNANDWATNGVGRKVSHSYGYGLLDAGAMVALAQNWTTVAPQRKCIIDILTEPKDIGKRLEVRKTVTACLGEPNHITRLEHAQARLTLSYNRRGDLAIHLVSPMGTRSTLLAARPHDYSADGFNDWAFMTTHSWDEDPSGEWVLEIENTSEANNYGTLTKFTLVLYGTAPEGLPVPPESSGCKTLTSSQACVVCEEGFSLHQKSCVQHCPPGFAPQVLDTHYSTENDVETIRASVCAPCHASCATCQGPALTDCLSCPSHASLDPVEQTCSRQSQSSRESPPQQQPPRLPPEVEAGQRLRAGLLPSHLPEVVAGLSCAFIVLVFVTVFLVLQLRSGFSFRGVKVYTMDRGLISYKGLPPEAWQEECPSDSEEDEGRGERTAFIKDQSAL
T1 sequence (P09958 108-574): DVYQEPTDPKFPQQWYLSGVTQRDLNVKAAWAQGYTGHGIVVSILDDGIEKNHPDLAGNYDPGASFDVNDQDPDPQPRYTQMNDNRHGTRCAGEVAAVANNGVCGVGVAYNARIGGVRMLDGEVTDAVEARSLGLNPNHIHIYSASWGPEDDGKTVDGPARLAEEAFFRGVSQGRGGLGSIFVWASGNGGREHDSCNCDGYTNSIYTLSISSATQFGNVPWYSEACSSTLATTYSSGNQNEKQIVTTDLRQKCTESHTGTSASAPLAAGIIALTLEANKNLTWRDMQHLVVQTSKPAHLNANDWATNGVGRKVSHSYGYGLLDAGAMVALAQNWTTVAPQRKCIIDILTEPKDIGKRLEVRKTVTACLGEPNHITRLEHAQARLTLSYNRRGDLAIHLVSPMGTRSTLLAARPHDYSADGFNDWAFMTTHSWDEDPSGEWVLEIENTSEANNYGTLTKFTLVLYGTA

Consider `CNC(=O)OCC1CCN(Cc2cc(Oc3ccc(N4CCN(C[C@@H](C)O)CC4)nc3)nc(-c3cc(Cl)cc(Cl)c3)c2)CC1` [Example 305, (R)-(1-((2-(3,5-dichlorophenyl)-6-((6-(4-(2-hydroxypropyl)piperazin-1-yl)pyridin-3-yl)oxy)pyridin-4-yl)methyl)piperidin-4-yl)methyl methylcarbamate], for which the “furin enzyme pIC50” value in test [1] is 8.7. Further, the EC50 in test [2] is 10 nM.

In the case of `CNC(=O)OCC1CCN(Cc2cc(Oc3cnc(N4CCN(CCO)CC4)nc3)nc(-c3cc(Cl)cc(Cl)c3)c2)CC1` [Example 307, (1-((2-(3,5-dichlorophenyl)-6-((2-(4-(2-hydroxyethyl)piperazin-1-yl)pyrimidin-5-yl)oxy)pyridin-4-yl)methyl)piperidin-4-yl)methyl methylcarbamate], the “furin enzyme pIC50” value in test [1] was 9.4. In test [2], the EC50 is 2 nM.

In the case of `CNC(=O)OCC1CCN(Cc2cc(Oc3cnc(N4CCN(C[C@@H](C)O)CC4)nc3)nc(-c3cc(Cl)cc(Cl)c3)c2)CC1` [Example 308, (R)-(1-((2-(3,5-dichlorophenyl)-6-((2-(4-(2-hydroxypropyl)piperazin-1-yl)pyrimidin-5-yl)oxy)pyridin-4-yl)methyl)piperidin-4-yl)methyl methylcarbamate], the “furin enzyme pIC50” value in test [1] is on record as 9.3. Moreover, in test [2], the EC50 was 12.6 nM.

As for `CNC(=O)NCC1CCN(Cc2cc(Oc3ccc(N4CCN(C[C@@H](C)O)CC4)nc3)nc(-c3cc(Cl)cc(Cl)c3)c2)CC1` [Example 309, (R)-1-((1-((2-(3,5-dichlorophenyl)-6-((6-(4-(2-hydroxypropyl)piperazin-1-yl)pyridin-3-yl)oxy)pyridin-4-yl)methyl)piperidin-4-yl)methyl)-3-methylurea], the “furin enzyme pIC50” value in test [1] is listed as 9.8. In addition, in test [2], the EC50 was 2.51 nM.

On to `CNC(=O)NCC1CCN(Cc2cc(Oc3cnc(N4CCN(C[C@@H](C)O)CC4)nc3)nc(-c3cc(Cl)cc(Cl)c3)c2)CC1` [Example 310, (R)-1-((1-((2-(3,5-dichlorophenyl)-6-((2-(4-(2-hydroxypropyl)piperazin-1-yl)pyrimidin-5-yl)oxy)pyridin-4-yl)methyl)piperidin-4-yl)methyl)-3-methylurea], for which the “furin enzyme pIC50” value in test [1] is given as 9.6. Further, in test [2], the EC50 was 3.98 nM.

As for `COC(=O)NCC1CCN(Cc2cc(Oc3cnc(N4CCN(CCO)CC4)nc3)nc(-c3cc(Cl)cc(Cl)c3)c2)CC1` [Example 311, methyl ((1-((2-(3,5-dichlorophenyl)-6-((2-(4-(2-hydroxyethyl)piperazin-1-yl)pyrimidin-5-yl)oxy)pyridin-4-yl)methyl)piperidin-4-yl)methyl)carbamate], in test [1], the “furin enzyme pIC50” value was found to be 8.9. For the same compound, the EC50 in test [2] was 15.8 nM.

Consider `COC(=O)NCC1CCN(Cc2cc(Oc3cnc(N4CCN(C[C@@H](C)O)CC4)nc3)nc(-c3cc(Cl)cc(Cl)c3)c2)CC1` [Example 312, (R)-methyl ((1-((2-(3,5-dichlorophenyl)-6-((2-(4-(2-hydroxypropyl)piperazin-1-yl)pyrimidin-5-yl)oxy)pyridin-4-yl)methyl)piperidin-4-yl)methyl)carbamate], for which, in test [1], the “furin enzyme pIC50” value is recorded as 9.7. The EC50 in test [2] was 15.8 nM.

Regarding `CNC(=O)NCC1CCN(Cc2cc(Oc3cnc(N4CCN(CCO)CC4)nc3)cc(-c3cc(Cl)cc(Cl)c3)c2)CC1` [Example 313, 1-((1-((3′,5′-dichloro-5-((2-(4-(2-hydroxyethyl)piperazin-1-yl)pyrimidin-5-yl)oxy)-[1,1′-biphenyl]-3-yl)methyl)piperidin-4-yl)methyl)-3-methylurea], in test [1] (read-out: furin enzyme pIC50 (converted)), the IC50 is under 0.158 nM. Moreover, in test [2], the EC50 is 15.8 nM.

Consider `O=C(O)CCC1CCN(Cc2cc(Oc3ccc(N4CCN(CCO)CC4)nc3)nc(-c3cc(Cl)cc(Cl)c3)c2)CC1` [Example 314, 3-(1-((2-(3,5-dichlorophenyl)-6-((6-(4-(2-hydroxyethyl)piperazin-1-yl)pyridin-3-yl)oxy)pyridin-4-yl)methyl)piperidin-4-yl)propanoic acid], for which, in test [1], the “furin enzyme pIC50” value amounted to 8.9. Moreover, in test [2], the EC50 was 31.6 nM.

Regarding `CC(=O)NCC1CCN(Cc2cc(Oc3cnc(N4CCN(CCO)CC4)nc3)nc(-c3cc(F)cc(Cl)c3)c2)CC1` [Example 315, N-((1-((2-(3-chloro-5-fluorophenyl)-6-((2-(4-(2-hydroxyethyl)piperazin-1-yl)pyrimidin-5-yl)oxy)pyridin-4-yl)methyl)piperidin-4-yl)methyl)acetamide], the “furin enzyme pIC50” value in test [1] was 9.2. In addition, in test [2], the EC50 was 15.8 nM.

As to `CC(=O)NCC1CCN(Cc2cc(Oc3cnc(N4CCN(CC(O)C(=O)O)CC4)nc3)nc(-c3cc(Cl)cc(Cl)c3)c2)CC1` (centres unmarked) [Example 316, 3-(4-(5-((4-((4-(acetamidomethyl)piperidin-1-yl)methyl)-6-(3,5-dichlorophenyl)pyridin-2-yl)oxy)pyrimidin-2-yl)piperazin-1-yl)-2-hydroxypropanoic acid], the “furin enzyme pIC50” value in test [1] is on record as 10.2. Moreover, in test [2], the EC50 is 100 nM.

Consider `C[C@@H](O)CN1CCN(c2ncc(Oc3cc(CN4CCC(OCC(=O)O)CC4)cc(-c4cc(Cl)cc(Cl)c4)n3)cn2)CC1` [Example 317, (R)-2-((1-((2-(3,5-dichlorophenyl)-6-((2-(4-(2-hydroxypropyl)piperazin-1-yl)pyrimidin-5-yl)oxy)pyridin-4-yl)methyl)piperidin-4-yl)oxy)acetic acid], for which the “furin enzyme pIC50” value in test [1] was 9.2. For the same compound, the EC50 in test [2] was 15.8 nM.

As for `CN1CCN(c2ncc(Oc3cc(CN4CCC(CB(O)O)CC4)cc(-c4cc(Cl)cc(Cl)c4)n3)cn2)CC1` [Example 318, ((1-((2-(3,5-Dichlorophenyl)-6-((2-(4-methylpiperazin-1-yl)pyrimidin-5-yl)oxy)pyridin-4-yl)methyl)piperidin-4-yl)methyl)boronic acid, 4 hydrochloride], the “furin enzyme pIC50” value in test [1] is listed as 8.9. Further, the EC50 in test [2] is 10 nM.

`CC(=O)NCC1CCN(Cc2cc(Oc3cnc(N4CCN(CCB(O)O)CC4)nc3)nc(-c3cc(Cl)cc(Cl)c3)c2)CC1` [Example 319, (2-(4-(5-((4-((4-(Acetamidomethyl)piperidin-1-yl)methyl)-6-(3,5-dichlorophenyl)pyridin-2-yl)oxy)pyrimidin-2-yl)piperazin-1-yl)ethyl)boronic acid, 4 hydrochloride]: the “furin enzyme pIC50” value in test [1] stood at 8.9. The EC50 in test [2] was 1 nM.

Turning to `CN1CCN(c2ncc(Oc3cc(CN4CCC(CP(C)(C)=O)CC4)cc(-c4cc(Cl)cc(Cl)c4)n3)cn2)CC1` [Example 320, ((1-((2-(3,5-Dichlorophenyl)-6-((2-(4-methylpiperazin-1-yl)pyrimidin-5-yl)oxy)pyridin-4-yl)methyl)piperidin-4-yl)methyl)dimethylphosphine oxide, 4 hydrochloride], the “furin enzyme pIC50” value in test [1] amounted to 8.2. Besides, the EC50 in test [2] was 12.6 nM.

Turning to `CN1CCCN(c2ncc(Oc3cc(CN4CCC(CB(O)O)CC4)cc(-c4cc(Cl)cc(Cl)c4)n3)cn2)CC1` [Example 322, ((1-((2-(3,5-dichlorophenyl)-6-((2-(4-methyl-1,4-diazepan-1-yl)pyrimidin-5-yl)oxy)pyridin-4-yl)methyl)piperidin-4-yl)methyl)boronic acid], the “furin enzyme pIC50” value in test [1] is given as 8.9. The EC50 in test [2] was 6.31 nM.
